In paper PMC6882492, “Synthesis and biological evaluation of novel thienopyrimidine derivatives as diacylglycerol acyltransferase 1 (DGAT-1) inhibitors” (Journal of Enzyme Inhibition and Medicinal Chemistry, 2019):

Tests used:
[1] = target: T1, human recombinant DGAT1 enzyme expressed in insect cells (SF9 cells) (Homo sapiens, UniProt O75907); experiment: DGAT-1 inhibition assay (IC50), SF9 microsomes; assay type: biochemical; conditions: SF9 insect cells expressing human DGAT-1
T1 construct: made in house; host or cells: SF9 insect cells (microsomal membrane fraction)
T1 sequence (O75907 1-488): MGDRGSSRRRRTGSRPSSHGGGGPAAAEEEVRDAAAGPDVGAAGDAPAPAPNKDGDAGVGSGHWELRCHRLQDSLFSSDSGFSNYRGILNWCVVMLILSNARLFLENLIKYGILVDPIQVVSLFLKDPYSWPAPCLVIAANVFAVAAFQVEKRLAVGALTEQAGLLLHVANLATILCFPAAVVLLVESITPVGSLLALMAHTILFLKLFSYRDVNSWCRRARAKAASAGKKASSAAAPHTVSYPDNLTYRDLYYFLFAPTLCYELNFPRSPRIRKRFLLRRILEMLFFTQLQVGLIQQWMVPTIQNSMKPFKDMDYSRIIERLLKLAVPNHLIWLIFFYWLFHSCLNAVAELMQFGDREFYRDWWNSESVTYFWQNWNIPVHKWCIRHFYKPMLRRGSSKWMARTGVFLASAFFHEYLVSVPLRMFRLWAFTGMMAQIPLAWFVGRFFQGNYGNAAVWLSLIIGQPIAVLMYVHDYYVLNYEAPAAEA
Protocol: The activity of DGAT-1 inhibitors in vitro was evaluated by using a human recombinant DGAT1 enzyme expressed in insect cells (SF9 cells). SF9 cells were homogenised by washing them with DPBS (Dulbecco’s phosphate-buffered saline) and then suspending cell pellets with a tris buffer (250 mM sucrose; 10 mM Tris-HCl [pH 7.4]; proteinase inhibitor). The resulting mixture was centrifugally separated at 10,000 × g for 30 min to remove the cell debris remaining in the lower layer thereof, and was centrifugally separated at 100,000 × g for 60 min to obtain a microsomal membrane. Further, membrane fractions were resuspended by the tris buffer, and then stored at -80 °C.
The activity of DGAT1 was measured according to the reported method. Specifically, 0.0001 – 10 μΜ (final concentration, FC) of the test compounds were cultured at room temperature (25 °C) for 15 min with a […] of SF9 microsomal protein solution and 100 mM of MgCl2 solution, and were then further cultured at room temperature (25 °C) for 30 min after the addition of 100 μΜ (FC in 12.5% EtOH) of 1,2-dioleyl-sn-glycerol and 30 μΜ (final conc.) of [14]C-oleyl coenzyme A. The reaction was completed by the addition of 300 μL of a mixed solution of 2-propanol/heptane (7:1), and radioactive triglyceride was separated from an organic solvent layer by using 200 μL of heptane and 200 μL of a 0.1 M carbonate buffer (pH 9.5). The amount of triglyceride was measured by liquid scintillography (Perkin Elmer, USA) after mixing with an organic solvent and an equivalent amount of scintillation solvent (MicroScint-O, Perkin Elmer, USA). The effects of inhibiting DGAT1 were calculated as percent in comparison with a control material.
The activities of synthesised compounds were evaluated using SF9 insect cells expressing human DGAT-1[22]. A potent DGAT-1 inhibitor, LCQ-908 (2 or pradigastat) was used as a positive control. […] The calculated lowest energy conformation model of 14c provided that the distance between the terminal carboxylic acid and NH of urea was over 16 Å, which may result in reduced activity. […]

hDGAT1 = target: T2, hDGAT1 (Homo sapiens, UniProt O75907); experiment: Enzymatic assay hDGAT1; assay type: biochemical
T2 sequence (O75907 1-488): T1 sequence (O75907 1-488)
Source text: (§1) ACATs have sequence homology to DGAT-1 and play essential roles in cholesterol homeostasis. 17b was not explored in the enzymatic assays due to its poor pharmacokinetic profile.

hDGAT2 = target: T3, hDGAT2 (Homo sapiens, UniProt Q96PD7); experiment: Enzymatic assay hDGAT2; assay type: biochemical
T3 sequence (Q96PD7 1-388): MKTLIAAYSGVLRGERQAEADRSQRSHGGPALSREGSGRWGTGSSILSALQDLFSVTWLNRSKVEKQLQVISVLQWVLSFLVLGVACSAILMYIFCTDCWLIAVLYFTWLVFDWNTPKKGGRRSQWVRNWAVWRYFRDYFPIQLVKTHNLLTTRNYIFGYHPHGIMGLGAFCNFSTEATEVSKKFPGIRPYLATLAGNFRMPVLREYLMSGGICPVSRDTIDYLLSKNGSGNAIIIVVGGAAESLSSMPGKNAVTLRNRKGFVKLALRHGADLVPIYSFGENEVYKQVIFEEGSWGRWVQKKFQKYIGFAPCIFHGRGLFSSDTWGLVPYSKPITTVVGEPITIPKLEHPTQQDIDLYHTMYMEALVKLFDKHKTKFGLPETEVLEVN
Source text: as §1

hACAT1 = target: T4, hACAT1 (Homo sapiens, UniProt P35610); experiment: Enzymatic assay hACAT1; assay type: biochemical
T4 sequence (P35610 1-550): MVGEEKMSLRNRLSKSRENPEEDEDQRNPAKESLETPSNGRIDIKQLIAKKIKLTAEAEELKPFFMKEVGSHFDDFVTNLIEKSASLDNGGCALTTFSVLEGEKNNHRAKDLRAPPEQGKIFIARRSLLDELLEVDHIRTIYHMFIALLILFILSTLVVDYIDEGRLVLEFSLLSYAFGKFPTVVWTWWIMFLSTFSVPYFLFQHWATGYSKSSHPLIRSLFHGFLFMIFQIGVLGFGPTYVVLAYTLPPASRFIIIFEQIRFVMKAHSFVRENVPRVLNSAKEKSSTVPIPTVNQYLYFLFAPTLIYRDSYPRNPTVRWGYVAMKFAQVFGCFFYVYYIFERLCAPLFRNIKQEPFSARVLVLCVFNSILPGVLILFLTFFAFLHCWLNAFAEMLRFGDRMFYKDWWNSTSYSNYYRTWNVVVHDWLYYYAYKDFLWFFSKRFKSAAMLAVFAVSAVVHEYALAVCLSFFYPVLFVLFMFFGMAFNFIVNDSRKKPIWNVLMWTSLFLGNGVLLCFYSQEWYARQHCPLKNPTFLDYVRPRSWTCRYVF
Source text: as §1

hACAT2 = target: T5, hACAT2 (Homo sapiens, UniProt O75908); experiment: Enzymatic assay hACAT2; assay type: biochemical
T5 sequence (O75908 1-522): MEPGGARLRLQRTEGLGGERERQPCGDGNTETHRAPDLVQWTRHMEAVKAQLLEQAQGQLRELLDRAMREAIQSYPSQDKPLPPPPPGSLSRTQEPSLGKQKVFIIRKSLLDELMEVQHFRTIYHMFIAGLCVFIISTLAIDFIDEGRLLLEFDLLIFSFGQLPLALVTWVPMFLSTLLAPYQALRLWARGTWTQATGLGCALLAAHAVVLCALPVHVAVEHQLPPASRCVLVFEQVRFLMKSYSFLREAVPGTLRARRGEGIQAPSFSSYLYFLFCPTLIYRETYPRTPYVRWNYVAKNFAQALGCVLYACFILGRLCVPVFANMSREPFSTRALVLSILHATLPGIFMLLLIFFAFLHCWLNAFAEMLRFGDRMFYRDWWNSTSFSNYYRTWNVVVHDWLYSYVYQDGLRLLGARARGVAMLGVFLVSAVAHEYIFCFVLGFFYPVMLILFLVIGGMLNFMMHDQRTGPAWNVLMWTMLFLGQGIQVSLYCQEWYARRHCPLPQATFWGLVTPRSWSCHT
Source text: as §1

[2] = Tissue distribution in mice; assay type: in vivo; conditions: ICR mice, 30 mg/kg oral, n = 3
Protocol: In addition, tissue distribution of 17a was investigated. 17a was orally administered to mice at 30 mg/kg, and 2 was administrated as a positive control (Figure 5). […] Significant activity of 17a in the OLTT appeared to result from high concentration in the small intestine, even though bioavailability of 17a was not great in mice.
Figure 5. Tissue distribution of 17a in mice. 17a and 2 were orally administered to ICR mice at 30 mg/kg (n = 3). (a) AUC values of 17a and 2 in indicated tissues. […] Data represent mean value. (b) Tissue-to-plasma (T/P) ratio of 17a and 2. S.I.: small intestine, L.I.: large intestine.

[3] = Pharmacokinetic profile in ICR mice; conditions: mouse, in vivo

IC50 (hDGAT1) | IC50 (hDGAT2) | IC50 (hACAT1) | IC50 (hACAT2) | Compound | IC50 [1] | Tissue distribution (concentration levels in tissues) [2] | bioavailability ([3]; oral 10 mg/kg vs iv 3 mg/kg) | Cmax ([3]; oral 10 mg/kg, n = 3) | half-life ([3]; oral 10 mg/kg, n = 3) | AUC ([3]; oral 10 mg/kg, n = 3, read-out: AUC 0∼24)
57 nM | > 10000 nM | > 10000 nM | > 10000 nM | O=C(O)C[C@H]1CC[C@H](c2ccc(-c3ccc(Nc4ccc(C(F)(F)F)nc4)cn3)cc2)CC1 [Compound 2, pradigastat, reference compound] | 157 nM | much high concentrations in the liver and large intestine | – | – | – | –
– | – | – | – | O=C([O-])C[C@H]1CC[C@H](c2csc3c(-c4ccc(NC(=O)Nc5cccc(Cl)c5)cc4)ncnc32)CC1.[Na+] [Compound 17b, Sodium trans-2–(4–(4-(4-(3–(3-chlorophenyl)ureido)phenyl)thieno[3,2-d]pyrimidin-7-yl)cyclohexyl)acetate] | 89 nM | – | 0.7% | 74.8 ng/mL | 5.2 h | 234 ng·h/mL
